Experimental data as given in patent US20240025899A1, “TRIHETEROCYCLIC DERIVATIVE, AND PHARMACEUTICAL COMPOSITION AND APPLICATION THEREOF” (SHANGHAI DE NOVO PHARMATECH CO., LTD., priority 2020, published 2024).
Where a name gives a salt, the structure may show the parent alone. Read-outs that look alike come from different tables or passages of the source.

How the values were obtained:
CYP2C19 = CYP2C19 (Homo sapiens (Human), UniProt P33261); experiment: Cytochrome oxidase P450 inhibition study, CYP2C19; type: in vitro ADME; settings: human liver microsomes; read-out: IC50 2C19
Sequence of CYP2C19 (P33261 whole entry): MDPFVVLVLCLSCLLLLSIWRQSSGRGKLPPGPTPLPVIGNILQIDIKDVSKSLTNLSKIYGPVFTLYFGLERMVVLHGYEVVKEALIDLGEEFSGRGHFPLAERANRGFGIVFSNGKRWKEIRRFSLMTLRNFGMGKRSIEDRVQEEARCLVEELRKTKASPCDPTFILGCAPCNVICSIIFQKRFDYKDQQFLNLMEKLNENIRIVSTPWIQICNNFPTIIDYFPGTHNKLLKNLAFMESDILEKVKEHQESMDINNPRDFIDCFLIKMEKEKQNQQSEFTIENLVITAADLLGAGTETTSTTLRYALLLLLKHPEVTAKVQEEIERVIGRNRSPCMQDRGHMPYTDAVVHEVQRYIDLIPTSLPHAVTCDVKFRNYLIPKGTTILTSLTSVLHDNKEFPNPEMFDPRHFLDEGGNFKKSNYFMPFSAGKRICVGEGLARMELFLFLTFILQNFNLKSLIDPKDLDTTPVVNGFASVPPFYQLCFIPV
Description: (§1) LC-MS/MS methods were used to evaluate the inhibitory effects of compounds on CYP2C19, 2D6 and 3A4 subtypes. In this method, the test compound was mixed with a solution of human liver microsomes containing CYP model substrates, and incubated together under the addition of NADPH, then the inhibitory IC50 of the compound on CYP2C19, 2D6 and 3A4 was calculated by measuring the amount of metabolites of the model substrate in the reaction solution. The specific experimental method is as follows:
Compounds to be tested were prepared as stock solutions at 10 mM concentration with DMSO and then diluted to 4 mM with acetonitrile solution. At the same time, the corresponding reference inhibitor solutions for CYP subtypes were prepared, for example, the reference inhibitor was Ketoconazole, then these two compounds were prepared separately ([…] of inhibitor DMSO stock solution+[…] of acetonitrile), and the samples prepared under the above conditions were at 400× concentration. Then, the above solution was 3-fold diluted with DMSO/acetonitrile mixture (v/v: 40/60) to prepare the final test solution, and seven concentration points were set for each test compound, and the initial test final concentration was 10 μM. […]
[…] of human liver microsome solution (0.2 mg/mL) was added to each well containing the test compound in the 96-well plate, and then 2 mL of the final test sample of test compounds prepared by serial dilution as described above was added thereto; for each well corresponding to the reference inhibitors, […] of human liver microsome solution (0.2 mg/mL) and 1 mL of the final test sample were added. […] The inhibition rate was determined by comparing the amount of model substrate metabolites at each test concentration without test substance addition, in the GraphPad Prism 5.0 software, the logarithm of the test concentration was used as the abscissa and the inhibition rate was used as the ordinate to perform a linear regression (Sigmoidal (non-linear) dose-response model) analysis to obtain the IC50 value of the test compound.

hERG channel = hERG channel (Homo sapiens (Human), UniProt Q12809); experiment: Cardiac safety evaluation, hERG study (QPatch whole-cell recording); type: cell-based; settings: CHO cell line expressing hERG channel
Sequence of hERG channel (Q12809 whole entry): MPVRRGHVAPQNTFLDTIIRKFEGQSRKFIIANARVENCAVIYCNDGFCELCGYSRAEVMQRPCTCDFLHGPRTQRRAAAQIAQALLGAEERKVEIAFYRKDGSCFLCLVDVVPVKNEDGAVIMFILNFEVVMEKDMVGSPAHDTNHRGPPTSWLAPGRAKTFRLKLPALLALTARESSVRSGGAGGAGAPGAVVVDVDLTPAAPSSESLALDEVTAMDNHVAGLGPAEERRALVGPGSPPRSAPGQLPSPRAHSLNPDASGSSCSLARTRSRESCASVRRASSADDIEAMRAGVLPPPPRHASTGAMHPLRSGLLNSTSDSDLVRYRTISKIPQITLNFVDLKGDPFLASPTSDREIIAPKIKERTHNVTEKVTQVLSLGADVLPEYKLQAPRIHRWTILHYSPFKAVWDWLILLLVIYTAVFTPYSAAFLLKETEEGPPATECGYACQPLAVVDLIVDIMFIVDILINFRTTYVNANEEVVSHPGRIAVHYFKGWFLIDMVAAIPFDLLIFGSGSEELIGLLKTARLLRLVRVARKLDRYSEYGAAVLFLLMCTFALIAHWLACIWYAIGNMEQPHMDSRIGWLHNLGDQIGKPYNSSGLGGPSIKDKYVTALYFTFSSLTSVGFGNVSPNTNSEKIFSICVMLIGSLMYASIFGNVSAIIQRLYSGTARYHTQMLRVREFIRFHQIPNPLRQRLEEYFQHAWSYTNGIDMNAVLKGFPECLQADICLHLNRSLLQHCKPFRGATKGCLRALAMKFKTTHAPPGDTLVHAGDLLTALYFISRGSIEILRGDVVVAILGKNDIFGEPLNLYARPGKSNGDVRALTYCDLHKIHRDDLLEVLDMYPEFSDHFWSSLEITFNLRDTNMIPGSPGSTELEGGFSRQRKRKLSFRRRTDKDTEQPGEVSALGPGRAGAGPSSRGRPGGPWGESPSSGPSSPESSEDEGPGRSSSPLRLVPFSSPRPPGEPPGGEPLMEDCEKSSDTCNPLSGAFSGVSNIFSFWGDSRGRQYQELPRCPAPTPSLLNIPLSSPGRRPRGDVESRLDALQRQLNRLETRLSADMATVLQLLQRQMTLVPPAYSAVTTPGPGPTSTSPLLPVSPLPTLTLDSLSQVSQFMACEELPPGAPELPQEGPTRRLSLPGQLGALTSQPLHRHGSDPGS
Description: In this experiment, a CHO cell line stably transfected with hERG cDNA and expressing p15 hERG channel was used. Cells were incubated at 37° C. in a humidified incubator containing 5% CO2 in medium (Ham's F12, 10% v/v FBS, 100 μg/mL hygromycin B, 100 μg/mL geneticin) (from Invitrogen). Cells were grown under the above conditions and reached approximately 80-90% of the confluency. Cells were treated with Detachin (Genlantis) for 3 to 5 minutes. The medium was titrated 15 to 20 times at 37° C., and then the cells were resuspended in CHO-S-SFM II medium (serum-free medium, Invitrogen) buffered with HEPES (25 mM). Cells used for QPatch studies must meet the following criteria: Most suspension cells should be single and isolated under microscopy; viability should be greater than 95%; cell density in the final suspension should be in the range of 3 to 8×10^6 cells/mL before application to the QPatch stir chamber. Cells meeting the above conditions can be used for recordings within 4 hours of harvest.
Test compounds were made into 10 mM DMSO stock solutions. Six doses (30, 10, 3, 1, 0.3 and 0.1 μM) were selected to obtain the fitted curves and IC50. The final DMSO concentration was 0.1% or less. The IC50 of the positive control cisapride was assessed at doses of 3, 1, 0.3, 0.1, 0.03 and 0.01 μM, respectively. Composition of […] for electrophysiological recordings: CaCl2 2 mM, MgCl2 1 mM, KCl 4 mM, NaCl 145 mM, Glucose 10 mM, HEPES 10 mM, pH 7.4 (NaOH), composition of external solution: CaCl2 […], MgCl2 1.75 mM, KCl 120 mM, HEPES 10 mM, EGTA 5 mM, Na-ATP 4 mM, pH 7.25 (KOH) (all reagents used were from sigma).
Whole-cell recordings were performed using automated QPatch (Sophion Biosciences, Denmark). Cells were recorded for 120 s to assess current stability. The above voltages were then applied to the cells every 15 s throughout the procedure. […]
The data were analyzed with Sophion Assay software (determination software V5.0), Microsoft Excel and Graphpad Prism 5.0 to obtain IC50 of compounds.

CYP3A4 = CYP3A4 (Homo sapiens (Human), UniProt P08684); experiment: Cytochrome oxidase P450 inhibition study, CYP3A4; type: in vitro ADME; settings: human liver microsomes
Sequence of CYP3A4 (P08684 whole entry): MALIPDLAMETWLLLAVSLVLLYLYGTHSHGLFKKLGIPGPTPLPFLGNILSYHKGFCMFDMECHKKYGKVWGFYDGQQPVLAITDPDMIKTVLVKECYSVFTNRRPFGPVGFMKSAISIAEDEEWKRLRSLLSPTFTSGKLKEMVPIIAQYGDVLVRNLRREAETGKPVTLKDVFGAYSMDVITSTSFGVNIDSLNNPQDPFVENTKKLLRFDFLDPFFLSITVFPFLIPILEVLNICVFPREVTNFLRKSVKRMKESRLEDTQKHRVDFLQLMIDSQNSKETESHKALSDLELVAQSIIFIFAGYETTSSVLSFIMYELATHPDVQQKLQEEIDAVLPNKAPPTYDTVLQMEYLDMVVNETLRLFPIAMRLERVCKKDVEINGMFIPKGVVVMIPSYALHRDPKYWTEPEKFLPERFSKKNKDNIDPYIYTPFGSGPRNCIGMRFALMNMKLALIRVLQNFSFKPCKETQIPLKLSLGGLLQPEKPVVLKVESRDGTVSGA
Description: as §1
Compounds to be tested were prepared as stock solutions at 10 mM concentration with DMSO and then diluted to 4 mM with acetonitrile solution. At the same time, the corresponding reference inhibitor solutions for CYP subtypes were prepared, for example, the reference inhibitor was Ketoconazole, then these two compounds were prepared separately ([…] of inhibitor DMSO stock solution+[…] of acetonitrile), and the samples prepared under the above conditions were at 400× concentration. Then, the above solution was 3-fold diluted with DMSO/acetonitrile mixture (v/v: 40/60) to prepare the final test solution, and seven concentration points were set for each test compound, and the initial test final concentration was 10 μM. NADPH, CYP enzyme model substrate and human liver microsome solution were diluted to appropriate concentrations with pre-warmed potassium phosphate buffer (0.1 M, pH 7.4), respectively. The human liver microsome solution was purchased from BD Gentest (20 mg/mL, Corning, article number #452161).
[…] of human liver microsome solution (0.2 mg/mL) was added to each well containing the test compound in the 96-well plate, and then 2 mL of the final test sample of test compounds prepared by serial dilution as described above was added thereto; for each well corresponding to the reference inhibitors, […] of human liver microsome solution (0.2 mg/mL) and 1 mL of the final test sample were added. […] of the prepared corresponding model substrate was dispensed into a 96-well plate, and the microsome solution was mixed evenly, then 30 mL of the test compound/reference inhibitor-human liver microsome mixture was taken and transferred to the 96-well plate containing the substrate, and the mixture was mixed well and preheated at 37° C. for 5 minutes, then […] of 8 mM NADPH solution preheated at 37° C. was added thereto to start the reaction. A duplicate well control and a blank control without the addition of test substances were set at the same time. The 96-well plate containing a total volume of […] of reaction solution was incubated at 37° C. After the incubation, 120 μL of cold acetonitrile solution containing internal standard was added to each well to terminate the reaction, and then the 96-well plate was shaked on a microplate shaker for 5 minutes (600 rpm/min), and put into a centrifuge and centrifuged for 20 minutes at 6000 rpm, 4° C. Then 40 μL of supernatant from each well was transferred to another 96-well plate, and 80 μL of ultrapure water was added to each well, put into a shaker and mixed for 5 minutes (600 rpm/min), and centrifuged at 6000 rpm, 4° C., for 20 minutes. Then LC-MS/MS detection was performed. The inhibition rate was determined by comparing the amount of model substrate metabolites at each test concentration without test substance addition, in the GraphPad Prism 5.0 software, the logarithm of the test concentration was used as the abscissa and the inhibition rate was used as the ordinate to perform a linear regression (Sigmoidal (non-linear) dose-response model) analysis to obtain the IC50 value of the test compound.

[1] = substrate Midazolam, read-out: IC50 3A4 (Midazolam)
[2] = substrate Testosterone, read-out: IC50 3A4 (Testosterone)

SMILES | IC50 (CYP2C19) | IC50 (hERG channel) | IC50 (CYP3A4; [1]) | IC50 (CYP3A4; [2])
C[C@@H]1COCCN1c1nc2c(cnn2-c2cc[nH]n2)c2c1ccn2S(C)(=O)=O [Compound 1, (R)-3-methyl-4-(1-(methylsulfonyl)-6-(1H-pyrazol-3-yl)-1,6-dihydropyrazolo[3,4-b]pyrrolo[2,3-d]pyridin-4-yl)morpholine trifluoroacetate] | > 10 µM | > 30 µM | > 10 µM | > 10 µM
C[C@@H]1COCCN1c1nc2c(cnn2-c2cc[nH]n2)c2c1CCN2S(C)(=O)=O [Compound 2, (R)-3-methyl-4-(1-(methylsulfonyl)-6-(1H-pyrazol-3-yl)-1,2,3,6-tetrahydropyrazolo[3,4-b]pyrrolo[2,3-d]pyridin-4-yl)morpholine trifluoroacetate] | > 10 µM | > 30 µM | > 10 µM | > 10 µM
